Source: the supplement of paper PMC4862054

What was measured:
Settings in all cases: incubation time: 72 h
[1] = tested on: CAL-85-1; experiment: drug sensitivity score (DSS), CellTox Green (DSS (AUC-based score)); higher = stronger drug effect (viability inhibition or cytotoxicity); extreme values may be limits of the assay
How it was run: (§1)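 Plates with 384 wells held compound at 5 concentrations in 10-fold steps over a 10,000-fold range specific to each compound. Breast cancer cell lines were added in 20 µl suspension and incubated 72 h, then read for CellTox Green and CellTiter-Glo signals, with each plate normalised to 0.1 % DMSO and a positive kill control. The drug sensitivity score is based on the area under the fitted dose-response curve.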

[2] = tested on: MDA-MB-453; experiment: as above
How it was run: as §1

[3] = tested on: BT-474; experiment: as above
How it was run: as §1

[4] = tested on: MDA-MB-436; experiment: as above
How it was run: as §1

[5] = tested on: BT-549; experiment: as above
How it was run: as §1

[6] = tested on: DU-4475; experiment: as above
How it was run: as §1

[7] = tested on: MCF-10A; experiment: as above
How it was run: as §1

[8] = tested on: HCC1937; experiment: as above
How it was run: as §1

[9] = tested on: Hs578T; experiment: as above
How it was run: as §1

[10] = tested on: CAL-120; experiment: as above
How it was run: as §1

[11] = tested on: MFM-223; experiment: as above
How it was run: as §1

[12] = tested on: CAL-51; experiment: as above
How it was run: as §1

[13] = tested on: HCC1599; experiment: as above
How it was run: as §1

[14] = tested on: CAL-148; experiment: as above
How it was run: as §1

[15] = tested on: MDA-MB-231; experiment: as above
How it was run: as §1

[16] = tested on: MDA-MB-468; experiment: as above
How it was run: as §1

[17] = tested on: HCC1143; experiment: as above
How it was run: as §1

[18] = tested on: CAL-85-1; experiment: normalised response (% of control), CellTiter-Glo; higher = more viable cells (100 = DMSO, 0 = benzethonium chloride kill control)
How it was run: (§2)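 For each plate, 0.1 % DMSO was set to 100 and a positive kill control to 0. Breast cancer cell lines (20 µl suspension) were seeded into 384-well plates already holding compound at 5 concentrations in 10-fold steps over a 10,000-fold range chosen per compound, and incubated for 72 h. CellTox Green fluorescence at 485/520 nm was read before CellTiter-Glo luminescence, which followed 10 min at room temperature. Each value is the normalised signal at one concentration.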

[19] = tested on: MDA-MB-453; experiment: as above
How it was run: as §2

[20] = tested on: MDA-MB-436; experiment: as above
How it was run: as §2

[21] = tested on: HDQ-P1; experiment: as above
How it was run: as §2

[22] = tested on: CAL-51; experiment: as above
How it was run: as §2

[23] = tested on: HCC1599; experiment: as above
How it was run: as §2

[24] = tested on: CAL-148; experiment: as above
How it was run: as §2

[25] = tested on: MDA-MB-231; experiment: as above
How it was run: as §2

[26] = tested on: MDA-MB-468; experiment: as above
How it was run: as §2

| SMILES | drug sensitivity score [1] | drug sensitivity score [2] | drug sensitivity score [3] | drug sensitivity score [4] | drug sensitivity score [5] | drug sensitivity score [6] | drug sensitivity score [7] | drug sensitivity score [8] | drug sensitivity score [9] | drug sensitivity score [10] | drug sensitivity score [11] | drug sensitivity score [12] | drug sensitivity score [13] | drug sensitivity score [14] | drug sensitivity score [15] | drug sensitivity score [16] | drug sensitivity score [17] | normalised response [18] | normalised response [19] | normalised response [20] | normalised response [21] | normalised response [22] | normalised response [23] | normalised response [24] | normalised response [25] | normalised response [26] |
| --- | --- | --- | --- | --- | --- | --- | --- | --- | --- | --- | --- | --- | --- | --- | --- | --- | --- | --- | --- | --- | --- | --- | --- | --- | --- | --- |
| Cn1cc(C2=Nc3cc(NC(=O)C(N)C4CCCCC4)cc4c3C2=CNNC4=O)cn1 (centres undefined) | 12 | 3.06 | 0 | 0 | 4.35 | 0 | 16.2 | 0 | 1.58 | 1.7 | 5.76 | 11 | 0 | 0 | 8.99 | 3.14 | 0 | – | – | – | – | – | – | – | – | – |
| Cn1cc(C2=Nc3cc(NC(=O)C(N)C4CCCCC4)cc4c3C2=CNNC4=O)cn1 (centres undefined) (10000 nM) | – | – | – | – | – | – | – | – | – | – | – | – | – | – | – | – | – | 26.7% | 46.6% | 22.6% | 48.6% | 25.2% | 10.9% | 53.1% | 37.3% | 12.4% |
| COc1cc2c(cc1O)CC[C@@H]1[C@@H]2CC[C@]2(C)[C@@H](O)CC[C@@H]12 [2-methoxyestradiol] (10000 nM) | – | – | – | – | – | – | – | – | – | – | – | – | – | – | – | – | – | 33.3% | 59.7% | 44.7% | 73.7% | 31.1% | 31.6% | 39.8% | 51.9% | 34.4% |
| Cc1sc2c(c1C)C(c1ccc(Cl)cc1)=N[C@@H](CC(=O)OC(C)(C)C)c1nnc(C)n1-2 [(+)JQ1] (10000 nM) | – | – | – | – | – | – | – | – | – | – | – | – | – | – | – | – | – | 27.9% | 32.6% | 76.4% | 71.1% | 47.5% | 85.5% | 49.1% | 64.2% | 36.6% |
| CC1(C)CCC(CN2CCN(c3ccc(C(=O)NS(=O)(=O)c4ccc(NCC5CCOCC5)c([N+](=O)[O-])c4)c(Oc4cnc5[nH]ccc5c4)c3)CC2)=C(c2ccc(Cl)cc2)C1 [ABT-199] | 0 | 0 | 0 | 0 | 1.45 | 0 | 0 | – | 0 | 0.378 | 0 | 0 | 0 | 0 | 3.14 | 13.3 | 0 | – | – | – | – | – | – | – | – | – |
| Oc1ncnc2[nH]ncc12 [Allopurinol] | 0.422 | – | 0 | 0 | 0 | 0 | 0 | 0 | 0 | 0 | 0 | 0 | 0 | 0 | 0 | 0 | 0 | – | – | – | – | – | – | – | – | – |
| Oc1ncnc2[nH]ncc12 [Allopurinol] (10000 nM) | – | – | – | – | – | – | – | – | – | – | – | – | – | – | – | – | – | 106% | 111% | 101% | 95.1% | 131% | 102% | 106% | 103% | 97.9% |
| O=C1CN2Cc3c(ccc(Cl)c3Cl)N=C2N1 [Anagrelide] | 0 | 0 | 0 | 0 | 0 | 0 | 0 | 0 | 0 | 0 | 0 | 14.2 | 0 | – | 0 | 0 | 0 | – | – | – | – | – | – | – | – | – |
| O=C1CN2Cc3c(ccc(Cl)c3Cl)N=C2N1 [Anagrelide] (10000 nM) | – | – | – | – | – | – | – | – | – | – | – | – | – | – | – | – | – | 94.4% | 100% | 96% | 90.9% | 88% | 97% | 96.4% | 99.5% | 92% |
| Nc1ncn([C@@H]2O[C@H](CO)[C@@H](O)[C@H]2O)c(=O)n1 [Azacitidine] (10000 nM) | – | – | – | – | – | – | – | – | – | – | – | – | – | – | – | – | – | 106% | 102% | 54.7% | 63% | 91.2% | 76.1% | 87.7% | 68% | 17% |
| O=NN(CCCl)C(=O)NCCCl [Carmustine] (10000 nM) | – | – | – | – | – | – | – | – | – | – | – | – | – | – | – | – | – | 101% | 87.3% | 96.7% | 96.1% | 116% | 104% | 100% | 99.9% | 97.3% |
| CC1=C2C[C@H]3[C@@H](CC=C4C[C@@H](O)CC[C@@]43C)[C@@H]2CC[C@]12O[C@@H]1C[C@H](C)CN[C@H]1[C@H]2C [Cyclopamine] | 0 | 0 | 0 | 0 | 0 | 0 | 0 | – | 0 | 0 | 0 | 0 | 0 | 0 | 0 | 0 | 2.47 | – | – | – | – | – | – | – | – | – |
| CC1=C2C[C@H]3[C@@H](CC=C4C[C@@H](O)CC[C@@]43C)[C@@H]2CC[C@]12O[C@@H]1C[C@H](C)CN[C@H]1[C@H]2C [Cyclopamine] (10000 nM) | – | – | – | – | – | – | – | – | – | – | – | – | – | – | – | – | – | 104% | 103% | 84.6% | 86% | 106% | 107% | 110% | 106% | 51.5% |
| CC(=O)O[C@@]12CO[C@@H]1C[C@H](O)[C@@]1(C)C(=O)[C@H](O)C3=C(C)[C@@H](OC(=O)[C@H](O)[C@@H](NC(=O)OC(C)(C)C)c4ccccc4)C[C@@](O)([C@@H](OC(=O)c4ccccc4)[C@H]21)C3(C)C [Docetaxel] (1000 nM) | – | – | – | – | – | – | – | – | – | – | – | – | – | – | – | – | – | 28.9% | 44.4% | 32.8% | 64.2% | 32.9% | 29.6% | 45.5% | 28.5% | 34.9% |
| C[C@]12CC[C@@H]3c4ccc(OC(=O)N(CCCl)CCCl)cc4CC[C@H]3[C@@H]1CC[C@@H]2O [Estramustine] | 0 | 0 | 0 | 0 | 2.52 | 0 | 0 | 0 | – | 0 | 0 | 6.18 | 0 | 0 | 0 | 3.38 | 0 | – | – | – | – | – | – | – | – | – |
| CC1(C)CNc2cc(NC(=O)c3cccnc3NCc3ccncc3)ccc21 [Motesanib] (10000 nM) | – | – | – | – | – | – | – | – | – | – | – | – | – | – | – | – | – | 95.8% | 91.6% | 95% | 92.5% | 122% | 107% | 86.9% | 93.5% | 87.6% |
| CC(=O)c1c(C)c2cnc(Nc3ccc(N4CCNCC4)cn3)nc2n(C2CCCC2)c1=O [Palbociclib] | 0 | 0 | 0 | 0 | 0 | 0 | 0 | 0 | 0 | 0 | 0 | 0 | 0 | – | 0 | 0 | 0 | – | – | – | – | – | – | – | – | – |
| CC[C@@H]1C(=O)OC[C@@H]1Cc1cncn1C [Pilocarpine] | 0 | 0 | 0 | 0 | 0 | 0 | 0 | 0 | – | 0 | 0 | 0 | 0 | 0 | 0 | – | 0 | – | – | – | – | – | – | – | – | – |
| CC[C@@H]1C(=O)OC[C@@H]1Cc1cncn1C [Pilocarpine] (40000 nM) | – | – | – | – | – | – | – | – | – | – | – | – | – | – | – | – | – | 94.6% | 92.7% | 89.7% | 91.9% | 134% | 104% | 88.6% | 93.4% | 96% |
| CC(C)(C)c1cnc(CSc2cnc(NC(=O)C3CCNCC3)s2)o1 [SNS-032] (10000 nM) | – | – | – | – | – | – | – | – | – | – | – | – | – | – | – | – | – | 7.47% | 56.4% | 18.2% | 24.3% | 16.7% | 7.5% | 77.1% | 8.77% | 6.47% |
| Cn1cnc2c(F)c(Nc3ccc(Br)cc3Cl)c(C(=O)NOCCO)cc21 [Selumetinib] (10000 nM) | – | – | – | – | – | – | – | – | – | – | – | – | – | – | – | – | – | 61% | 93.8% | 85.4% | 56.3% | 106% | 72.7% | 76.1% | 62.4% | 69.9% |
| Nc1nc2[nH]cnc2c(=S)[nH]1 [Thioguanine] (10000 nM) | – | – | – | – | – | – | – | – | – | – | – | – | – | – | – | – | – | 51.7% | 79% | 31.3% | 31.8% | 28.6% | 28.2% | 68.2% | 33.4% | 48.9% |
